This is an account of results in ChEMBL document CHEMBL5500338, “Design, synthesis, and biological evaluation of piperazine derivatives as pan-PPARs agonists for the treatment of liver fibrosis” (Eur J Med Chem, 2024).

Common to all, as to type: cell-based
Assay [1] deals with T1, Peroxisome proliferator-activated receptor gamma (Homo sapiens, UniProt P37231).
T1 sequence (P37231 whole entry): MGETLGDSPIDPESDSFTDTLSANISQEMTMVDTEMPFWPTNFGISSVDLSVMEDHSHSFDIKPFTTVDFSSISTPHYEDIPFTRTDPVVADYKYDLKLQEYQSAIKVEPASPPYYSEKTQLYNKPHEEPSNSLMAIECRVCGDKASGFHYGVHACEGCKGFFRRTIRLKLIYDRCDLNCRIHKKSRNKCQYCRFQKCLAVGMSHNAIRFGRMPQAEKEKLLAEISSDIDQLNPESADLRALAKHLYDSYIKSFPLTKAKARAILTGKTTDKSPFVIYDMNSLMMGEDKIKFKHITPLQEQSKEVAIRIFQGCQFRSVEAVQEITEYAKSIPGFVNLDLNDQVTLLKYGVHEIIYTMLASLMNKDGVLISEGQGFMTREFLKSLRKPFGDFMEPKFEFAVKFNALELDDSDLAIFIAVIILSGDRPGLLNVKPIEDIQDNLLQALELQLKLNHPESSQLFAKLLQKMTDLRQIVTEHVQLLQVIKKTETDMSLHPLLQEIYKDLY
Put plainly: Agonist activity at human PPARgamma transfected in African green monkey COS-7 cells co-transfected with pGL4.35 and pBIND reporter gene plasmid assessed as receptor transactivation incubated for 16 hrs by luciferase reporter gene assay. In general terms: Reporter assays use an easily measured gene product as a stand-in for the process of interest.

Assay [2] has as its target T2, Peroxisome proliferator-activated receptor delta (Homo sapiens, UniProt Q03181).
T2 sequence (Q03181 whole entry): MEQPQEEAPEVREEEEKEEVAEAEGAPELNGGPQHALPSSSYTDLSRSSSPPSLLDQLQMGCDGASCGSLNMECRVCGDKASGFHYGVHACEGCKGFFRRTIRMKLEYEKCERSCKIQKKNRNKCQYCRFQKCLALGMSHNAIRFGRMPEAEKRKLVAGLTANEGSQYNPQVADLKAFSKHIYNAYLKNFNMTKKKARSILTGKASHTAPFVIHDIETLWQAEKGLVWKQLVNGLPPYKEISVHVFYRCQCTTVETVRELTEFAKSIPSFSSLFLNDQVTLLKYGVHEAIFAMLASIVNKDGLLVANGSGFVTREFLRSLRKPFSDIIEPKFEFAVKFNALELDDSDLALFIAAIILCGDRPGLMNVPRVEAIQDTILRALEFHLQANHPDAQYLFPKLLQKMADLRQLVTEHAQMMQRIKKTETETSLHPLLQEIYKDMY
Put plainly: Agonist activity at human PPARdelta transfected in African green monkey COS-7 cells co-transfected with pGL4.35 and pBIND reporter gene plasmid assessed as receptor transactivation incubated for 16 hrs by luciferase reporter gene assay.

Assay [3] concerns the target T3, Peroxisome proliferator-activated receptor alpha (Homo sapiens, UniProt Q07869).
T3 sequence (Q07869 whole entry): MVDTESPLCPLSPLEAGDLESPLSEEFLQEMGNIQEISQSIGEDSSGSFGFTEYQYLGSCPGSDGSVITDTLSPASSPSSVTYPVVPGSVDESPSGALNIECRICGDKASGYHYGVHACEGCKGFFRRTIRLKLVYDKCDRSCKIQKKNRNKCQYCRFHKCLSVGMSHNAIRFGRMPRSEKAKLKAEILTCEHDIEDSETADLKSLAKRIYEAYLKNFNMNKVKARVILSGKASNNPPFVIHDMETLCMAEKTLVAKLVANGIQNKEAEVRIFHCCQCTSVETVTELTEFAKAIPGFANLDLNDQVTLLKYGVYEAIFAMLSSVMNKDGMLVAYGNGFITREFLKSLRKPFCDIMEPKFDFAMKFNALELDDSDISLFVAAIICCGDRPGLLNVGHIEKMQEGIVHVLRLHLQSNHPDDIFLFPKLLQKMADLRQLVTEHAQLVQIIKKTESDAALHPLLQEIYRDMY
Put plainly: Agonist activity at human PPARalpha transfected in African green monkey COS-7 cells co-transfected with pGL4.35 and pBIND reporter gene plasmid assessed as receptor transactivation incubated for 16 hrs by luciferase reporter gene assay.

The EC50 is the concentration that produces a half-maximal response. As to `Cc1cc(CN2CCN(c3ccc(C(F)(F)F)nc3)CC2)cc(C)c1OC(C)(C)C(=O)O`, the half-maximal effective concentration (EC50) in assay [1] was above 10 µM.

On to `Cc1cc(CN2CCN(c3ccccn3)CC2)cc(C)c1OC(C)(C)C(=O)O`, for which the EC50 in assay [2] was above 10 µM.

As for `Cc1cc(CN2CCN(c3ncccc3C(F)(F)F)CC2)cc(C)c1OC(C)(C)C(=O)O`, the EC50 in assay [2] is above 10 µM. In the case of `Cc1cc(CN2CCN(Cc3ccc(C(F)(F)F)cn3)CC2)cc(C)c1OC(C)(C)C(=O)O`, the concentration for a half-maximal effect (EC50) in assay [2] worked out at 2 µM; in assay [1] it was 8.6 µM. In the case of `Cc1cc(CN2CCN(c3ccc(C(F)(F)F)cc3)CC2)cc(C)c1OC(C)(C)C(=O)O`, the results for the EC50 in assay [2] and in assay [1] were 0.8 µM and above 10 µM, respectively. Consider `Cc1cc(CN2CCN(c3cnc(C(F)(F)F)nc3)CC2)cc(C)c1OC(C)(C)C(=O)O`, for which the concentration for a half-maximal effect (EC50) in assay [2] is 3.2 µM; in assay [1] it was above 10 µM. `Cc1c(CN2CCN(c3ccc(C(F)(F)F)cc3)CC2)ccc(OC(C)(C)C(=O)O)c1C`: the 50% effective concentration (EC50) in assay [1] was above 10 µM. With `CC(C)(Oc1ccc(CCNC(=O)c2ccc(Cl)cc2)cc1)C(=O)O` [BEZAFIBRATE], the figures for the EC50 in assay [2] and in assay [1] were 49.7 µM and 13.2 µM, respectively. As for `Cc1cc(CN2CCN(Cc3ccc(C(F)(F)F)nc3)CC2)cc(C)c1OC(C)(C)C(=O)O`, the EC50 in assay [1] is above 10 µM.

As to `CC(C)(Oc1ccc(CN2CCN(c3ccc(C(F)(F)F)cc3)CC2)cc1)C(=O)O`, the 50% effective concentration (EC50) in assay [2] is 4.4 µM; in assay [1], above 10 µM. In the case of `Cc1ccc(N2CCN(Cc3cc(C)c(OC(C)(C)C(=O)O)c(C)c3)CC2)nc1`, the concentration for a half-maximal effect (EC50) in assay [2] was above 10 µM. The same measure, in the same setting: to `Cc1cc(CN2CCN(c3ncc(C(F)(F)F)cn3)CC2)cc(C)c1OC(C)(C)C(=O)O` belongs 0.8 µM. For the compound `O=C(O)CCCc1cc2cc(Cl)ccc2n1S(=O)(=O)c1ccc2ncsc2c1` [LANIFIBRANOR], the results for the EC50 in assay [2], in assay [1] and in assay [3] were 2.9 µM, 0.6 µM and 3.2 µM, respectively. Turning to `Cc1cc(CN2CCN(c3ccc(F)cn3)CC2)cc(C)c1OC(C)(C)C(=O)O`, the half-maximal effective concentration (EC50) in assay [2] was above 10 µM; in assay [1], 7.2 µM. Take `Cc1cc(OC(C)(C)C(=O)O)ccc1CN1CCN(c2ccc(C(F)(F)F)cc2)CC1`: the concentration giving a half-maximal response (EC50) in assay [3] was above 10 µM. As for `Cc1cc(CN2CCN(c3ccc(C(F)(F)F)cc3)CC2)ccc1OC(C)(C)C(=O)O`, the concentration for a half-maximal effect (EC50) in assay [1] is above 10 µM.
